What was measured:
BRD4 BD1 = target: T1, BRD4 BD1 (Homo sapiens, UniProt O60885); assay: AlphaScreen binding assay, BRD4 Bromodomain 1
T1 construct: made in house
Method in brief: (§1)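 Compound dilution series were mixed with His-tagged BRD4 bromodomain and biotinylated tetra-acetylated H4 (1-21) peptide at pH 7.3 (BD1 and peptide at 50 nM, BD2 and peptide at 100 nM). Donor and acceptor beads were then added, and plates were equilibrated at least 1 h before reading. IC50 values were fitted with a four-parameter logistic model.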

BRD4 BD2 = target: T2, BRD4 BD2 (Homo sapiens, UniProt O60885); assay: AlphaScreen binding assay, BRD4 Bromodomain 2
T2 construct: made in house
Method in brief: as §1

MV4-11 cells = assay: Oncology cell growth assay (3-day proliferation, CellTiter-Glo); format: cell-based; conditions: Homo sapiens, MV4-11, 72 h, AML cell line MV4-11, 72 hours, compounds grouped by IC50 range, read-out: MV4-11 IC50 (inhibition of proliferation, gIC50)
Method in brief: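 72 h, 37° C, 5% CO2; MV4-11, 3000 cells/well, RPMI 1640 + 10% FBS. Compound final 10, 3.3, 1.1, 0.37, 0.12, 0.041, 0.013, 0.0045 μM. Readout CellTiter-Glo luminescence; gIC50 by 4-parameter logistic fit, normalised to DMSO and no-cell background.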

IC50 (BRD4 BD1) [nM]	IC50 (BRD4 BD2) [nM]	IC50 (MV4-11 cells) [nM]	Compound
100 to 1000	50 to 500	< 100	CC(=O)N1c2ccc(-c3cnn(C4COC4)c3)cc2N(C(=O)OC2CCCCC2)C[C@@H]1C [Example I-86, (S)-cyclohexyl 4-acetyl-3-methyl-7-(1-(oxetan-3-yl)-1H-pyrazol-4-yl)-3,4-dihydroquinoxaline-1(2H)-carboxylate]
100 to 1000	50 to 500	> 500	CC(C)OC(=O)N1C[C@H](C)N(C(=O)C2CC2)c2ccc(-c3ccc(C4(O)COC4)cc3)cc21 [Example I-474]
100 to 1000	50 to 500	100 to 500	CC(=O)N1c2ccc(-c3cnn(CC#N)c3)cc2N(C(=O)OC(C)C)C[C@@H]1C [Example I-607]
100 to 1000	50 to 500	100 to 500	CC(=O)N1c2ccc(-c3ccc(S(=O)(=O)CC(C)C)cc3)cc2N(C(=O)OC2CCCCC2)C[C@@H]1C [Example I-1239]
100 to 1000	50 to 500	100 to 500	CCN(CC)S(=O)(=O)c1cc(-c2ccc3c(c2)N(C(=O)OC(C)C)C[C@H](C)N3C(C)=O)ccc1OC [Example I-1115]
100 to 1000	< 50	100 to 500	CC(=O)N1c2ccc(-c3cnn(C4CC4)c3)cc2N(C(=O)Oc2ccc3ccncc3c2)C[C@@H]1C [Example I-1206]
100 to 1000	50 to 500	100 to 500	CCOC(=O)N1C[C@H](C)N(C(C)=O)c2ccc(-c3ccc(NS(C)(=O)=O)c(C)c3)cc21 [Example I-1173]
100 to 1000	50 to 500	100 to 500	CC(=O)N1c2ccc(-c3ccc(S(=O)(=O)C(C)C)cc3)cc2N(C(=O)OC(C)C)C[C@@H]1C [Example I-1065]
100 to 1000	50 to 500	100 to 500	CC(=O)N1c2ccc(-c3cccc(S(=O)(=O)NCCO)c3)cc2N(C(=O)OC2CCOCC2)C[C@@H]1C [Example I-1256]
100 to 1000	50 to 500	100 to 500	CC(=O)N1c2ccc(-c3cnn(C4CCCS(=O)(=O)C4)c3)cc2N(C(=O)OC2CC(F)(F)C2)C[C@@H]1C (stereo partly drawn) [Example I-162, 3,3-difluorocyclobutyl (3S)-4-acetyl-7-[1-(1,1-dioxo-1λ^6-thian-3-yl)-1H-pyrazol-4-yl]-3-methyl-1,2,3,4-tetrahydroquinoxaline-1-carboxylate]
100 to 1000	50 to 500	> 500	CC(C)OC(=O)N1C[C@H](C)N(C(=O)C2CC2)c2ccc(-c3cnn(CCN4CCCS4(=O)=O)c3)cc21 [Example I-611]
1000 to 10000	< 50	100 to 500	CC(=O)N1c2ccc(-c3ccc(S(=O)(=O)N4CCN(C)CC4)cc3)cc2N(C(=O)c2ccco2)C[C@@H]1C [Example I-278]
100 to 1000	50 to 500	100 to 500	CC(=O)N1c2ccc(-c3ccc(S(C)(=O)=O)cc3)cc2N(C(=O)OCC(C)C)C[C@@H]1C [Example I-250]
< 100	< 50	< 100	COc1ccc(OC(=O)N2C[C@H](C)N(C(C)=O)c3ccc(-c4cnn(C5COC5)c4)cc32)cc1 [Example I-87, (S)-4-methoxyphenyl 4-acetyl-3-methyl-7-(1-(oxetan-3-yl)-1H-pyrazol-4-yl)-3,4-dihydroquinoxaline-1(2H)-carboxylate]
100 to 1000	< 50	< 100	CC(=O)N1c2ccc(-c3ccc(NS(=O)(=O)c4ccc(C)cc4)cc3)cc2N(C(=O)c2ccco2)C[C@@H]1C [Example I-860]
1000 to 10000	50 to 500	> 500	CC(=O)N1c2ccc(-c3ccc(S(C)(=O)=O)c(F)c3)cc2N(C(=O)C2CCC2)C[C@@H]1C [Example I-1083]
1000 to 10000	< 50	100 to 500	CC(=O)N1c2ccc(-c3cnn(CCO)c3)cc2N(c2nn(C)c3c(F)cccc23)C[C@@H]1C [Example I-180, 1-[(2S)-4-(7-fluoro-1-methyl-1H-indazol-3-yl)-6-[1-(2-hydroxyethyl)-1H-pyrazol-4-yl]-2-methyl-1,2,3,4-tetrahydroquinoxalin-1-yl]ethan-1-one]
100 to 1000	50 to 500	100 to 500	CC(=O)N1c2ccc(-c3cnn(CCCO)c3)cc2N(C(=O)OC(C)C)C[C@@H]1C [Example I-137, (S)-isopropyl 4-acetyl-7-(1-(3-hydroxypropyl)-1H-pyrazol-4-yl)-3-methyl-3,4-dihydroquinoxaline-1(2H)-carboxylate]
100 to 1000	50 to 500	100 to 500	COc1cccc(OC(=O)N2C[C@H](C)N(C(C)=O)c3ccc(-c4cnn(C5CC5)c4)cc32)c1 [Example I-500]
1000 to 10000	50 to 500	> 500	CC(=O)N1c2ccc(-c3cccc(S(C)(=O)=O)c3)cc2N(C(=O)C2CC2)C[C@@H]1C [Example I-1050]
100 to 1000	< 50	100 to 500	CC(=O)N1c2ccc(-c3cnn(CCO)c3)cc2N(c2nn(C)c3cccc(F)c23)C[C@@H]1C [Example I-190, 1-[(2S)-4-(4-fluoro-1-methyl-1H-indazol-3-yl)-6-[1-(2-hydroxyethyl)-1H-pyrazol-4-yl]-2-methyl-1,2,3,4-tetrahydroquinoxalin-1-yl]ethan-1-one]

IC50 (BRD4 BD1) [nM]	IC50 (BRD4 BD2) [nM]	IC50 (MV4-11 cells) [nM]	Compound
100 to 1000	> 500	> 500	CC(C)OC(=O)N1C[C@H](C)N(C(=O)C2CC2)c2ccc(-c3ccc(S(=O)(=O)CCO)cc3)cc21 [Example I-479]
1000 to 10000	> 500	> 500	CC(=O)N1c2ccc(-c3ccc(S(C)(=O)=O)cc3)cc2N(C(=O)OC2CCCC2)C[C@@H]1C [Example I-236]
100 to 1000	< 50	< 100	CC(=O)N1c2ccc(-c3cnn(C4CC4)c3)cc2N(C(=O)Oc2cccc3nccnc23)C[C@@H]1C [Example I-1204]
100 to 1000	50 to 500	100 to 500	COC(=O)N1c2ccc(-c3cnn(CCN4CCOCC4)c3)cc2N(C(=O)OC(C)C)C[C@@H]1C [Example I-321]
100 to 1000	> 500	> 500	CC(=O)N1c2cc([N+](=O)[O-])c(-c3cnn(C4CC4)c3)cc2N(C(=O)OC(C)C)C[C@@H]1C [Example I-195, isopropyl (S)-4-acetyl-7-(1-cyclopropyl-1H-pyrazol-4-yl)-3-methyl-6-nitro-3,4-dihydroquinoxaline-1(2H)-carboxylate]
100 to 1000	50 to 500	100 to 500	CC(=O)N1c2ccc(-c3ccc4c(cnn4C)c3)cc2N(C(=O)c2ccco2)C[C@@H]1C [Example I-852]
100 to 1000	50 to 500	100 to 500	CC(=O)N1c2ccc(-c3cnn(C4CCOCC4)c3)cc2N(C(=O)OC(C)C)C[C@@H]1C [Example I-307]
100 to 1000	< 50	100 to 500	COc1ccc(OC(=O)N2C[C@H](C)N(C(C)=O)c3ccc(-c4cnn(C5CC5)c4)cc32)cc1 [Example I-263]
100 to 1000	< 50	< 100	COC(=O)c1ccc(OC(=O)N2C[C@H](C)N(C(C)=O)c3ccc(-c4ccc(S(C)(=O)=O)cc4)cc32)cc1 [Example I-229]
100 to 1000	50 to 500	100 to 500	CC(=O)N1c2ccc(-c3ccc(C(=O)N4CCNCC4)cc3)cc2N(C(=O)OC(C)C)C[C@@H]1C [Example I-557]
100 to 1000	< 50	100 to 500	COCCn1cc(-c2ccc3c(c2)N(C(=O)OC(C)C)C[C@H](C)N3C(C)=O)cn1 [Example I-17, (S)-isopropyl 4-acetyl-7-(1-(2-methoxyethyl)-1H-pyrazol-4-yl)-3-methyl-3,4-dihydroquinoxaline-1(2H)-carboxylate]
< 100	< 50	100 to 500	CC(=O)N1c2ccc(-c3cnn(CC4(CO)COC4)c3)cc2N(C(=O)OC(C)C)C[C@@H]1C [Example I-600]
100 to 1000	50 to 500	100 to 500	COC(=O)N1c2ccc(-c3ccc(C(=O)N4CC[C@@H](N(C)C)C4)cc3)cc2N(C(=O)OC(C)C)C[C@@H]1C [Example I-565]
100 to 1000	50 to 500	100 to 500	CC(=O)N1c2ccc(-c3ccc(C(=O)N4CCNC(=O)C4)cc3)cc2N(C(=O)OC(C)C)C[C@@H]1C [Example I-547]
100 to 1000	50 to 500	100 to 500	CC(=O)N1c2ccc(-c3cnn(C(C)(C)CO)c3)cc2N(C(=O)Oc2cccnc2)C[C@@H]1C [Example I-1284]
100 to 1000	< 50	100 to 500	CC(=O)N1c2ccc(-c3ccc(N4CCCS4(=O)=O)cc3)cc2N(C(=O)Oc2ccc(F)cc2F)C[C@@H]1C [Example I-1011]
100 to 1000	50 to 500	< 100	COc1c(OC(=O)N2C[C@H](C)N(C(C)=O)c3ccc(-c4cnn(C5CC5)c4)cc32)ccnc1C [Example I-522]
100 to 1000	< 50	> 500	CC(=O)N1c2ccc(-c3cnn(C4CC4)c3)cc2N(C(=O)Oc2cncc(Cl)c2)C[C@@H]1C [Example I-1187]
100 to 1000	50 to 500	100 to 500	CCOC(=O)N1C[C@H](C)N(C(C)=O)c2ccc(-c3ccc(OC)c(N4CCCS4(=O)=O)c3)cc21 [Example I-1169]
100 to 1000	50 to 500	100 to 500	COC(=O)N1c2ccc(-c3cnn(Cc4cnccn4)c3)cc2N(C(=O)OC(C)C)C[C@@H]1C [Example I-633]

Reference: patent US10703764B2, “Benzopiperazine compositions as BET bromodomain inhibitors” (FORMA Therapeutics, Inc., priority 2013, dated 2020)
